Data from patent US8865197B2, “Food formulation for aquatic animals with integrated targeted delivery of bioactive agents” (Israel Oceanographic and Limnological Research Ltd., priority 2005, dated 2014).

Test system: rainbow trout
Experiment: Cannulation experiment: plasma cortisol response to oral ACTH with gut modulators
Assay type: in vivo, rainbow trout (Oncorhynchus mykiss)
Conditions: for Cumulative plasma cortisol: over a 360 min period, oral ACTH 0.5 mg kg^−1
Method: Rainbow trout of a weight range of 750-1700 g (Spring Valley Trout Farms, Langley, BC) were immunized against firunculosis and vibriosis by injecting them with 0.2 ml fish^−1 of a 1:1 ratio of VIBRIOGEN and FUROGEN (Microtek, BC, Canada), and stocked in 4,000 liter tanks. The tanks were supplied with well water at a temperature of 10±0.5° C. at about 10 exchanges per day. After 10 days fish were transferred gradually over a period of another 10 days to full strength seawater (25-29 ppt). The temperature of the seawater ranged between 7-9° C. according to season. Only following their acclimation to seawater, after another 10 days, were fish used. […] Fish were fed daily about 1% BW of a 42% protein and 33% crude fat diet (Moore-Clark Co., Canada).
Fish were kept individually in 200 1 fiberglass tub aquaria. Fish in the tanks were confined to one half of the tank with a partition. […] In addition, fish were encouraged to swim against a current, which was generated by a pipe which directed the water inflow to the surface of the tank. The experimental fish were not fed within a given experiment, which normally lasted for 5 days, and were force fed once a week with a 0.5% body weight of a Moore Clark “Royal extrude salmon feed” (42% C.P., 33% C.F.), which was mixed with water at a 1:1 ratio to give a paste which could be intubated into the fish.
Fish were anesthetized in two stages. They were first sedated in metomidate hydrochloride (Marinil, Wildlife laboratories Inc. CO, USA) in a 250 ppb solution in the 4000 liter holding tanks with the water supply turned off. Fish were netted out of the 4,000 liter tanks into 15 liter of well aerated 100 ppm MS222 (3 amino benzoic acid ethyl ester; SIGMA) solution in SW for a deeper anesthesia. Fish were sedated until active gill ventilation ceased at which point they were taken out of the water, weighed and cannulated.
Samples were taken of blood to determine plasma cortisol or hCG. Blood sampling was done in two stages: First a volume equal to the dead volume of the cannula (˜250 μl) was withdrawn and discarded, this was followed by sampling 250-500 μl blood, depending on the RIA assay (cortisol or hCG), into a 1 ml EDTA-Aprotinin coated syringe. The blood samples were kept in 500 μl Eppendorf tubes on ice for up to two hours within which time the tubes were centrifuged at 13,000 rpm for 5 min. The supernatant plasma was removed by disposable Pasteur pipettes into Eppendorff tubes and stored at −40° C. until the RIA. When blood samples were taken for hCG analysis they were centrifuged for 5 minutes at 3750 rpm at 5° C.
To measure plasma cortisol, 20 μl of plasma was applied to a kit by INCSTAR (Minnesota, USA). No significant crossreactivity of this kit was found with dexamethasone (9α-Fluoro-16α-Methyl Predindone, SIGMA), while it crossreacted with cortisol (hydrocortisone; SIGMA), which was used in the clearance rate experiments. Porcine ACTH (SIGMA) which was used for the intubation study elicited a cortisol response in fish but could not be detected reliably by the cortisol RIA. Plasma hCG was also determined based on a RIA (INCSTAR) kit and of the orally applied hCG based on Van der Kraak et al. (1984). ACTH stimulates cortisol production in the interrenal cells of the kidney.

ACTH
cumulative response of cortisol to plasma ACTH (DOC molar concentration 0 in the intubation medium (PBS)): 1454±597 ng cortisol kg^−1
Cumulative plasma cortisol (DOM 0 mg kg^−1): 1086 ng/kg

O=c1[nH]c2ccccc2n1CCCN1CCC(n2c(=O)[nH]c3cc(Cl)ccc32)CC1 [DOM, domperidone]
gut penetrability to ACTH as reflected by plasma cortisol (change relative to no modulator): quadrupled
Cumulative plasma cortisol (DOM 4.5 mg kg^−1): 4329 ng/kg

C[C@H](CCC(=O)O)[C@H]1CC[C@H]2[C@@H]3CC[C@@H]4C[C@H](O)CC[C@]4(C)[C@H]3C[C@H](O)[C@]12C [DOC, deoxycholic acid]
cumulative response of cortisol to plasma ACTH (DOC molar concentration 0.0167 in the intubation medium (PBS)): 7042±3243 ng cortisol kg^−1
